The values below are quoted from earlier work in patent US20150148324A1 (VALPHARMA INTERNATIONAL S.P.A., priority 2012, published 2015).

The subject of the series is uterine fibroma. The following applies: daily oral 5 mg for 6 months, versus higher doses.

With `CC#C[C@]1(O)CC[C@H]2[C@@H]3CCC4=CC(=O)CCC4=C3[C@@H](c3ccc(N(C)C)cc3)C[C@@]21C` [Mifepristone], the “effect in the treatment of uterine fibroma” value is “effects comparable with those of higher doses of Mifepristone”.
